Laboratory results reported in ChEMBL document CHEMBL3751690, “Oxidative burst inhibition, cytotoxicity and antibacterial acriquinoline alkaloids from Citrus reticulate (Blanco)” (Bioorg Med Chem Lett, 2016).

How the values were obtained:
Bacillus subtilis = assay: Antimicrobial activity against Bacillus subtilis after 48 hrs by paper disk diffusion assay; type: functional
Aphanomyces cochlioides = assay: Antimicrobial activity against Aphanomyces cochlioides after 48 hrs by paper disk diffusion assay; type: functional
Rhizomucor miehei = assay: Antimicrobial activity against Mucor miehei after 48 hrs by paper disk diffusion assay; type: functional
Staphylococcus aureus = assay: Antimicrobial activity against Staphylococcus aureus after 48 hrs by paper disk diffusion assay; type: functional
Candida albicans = assay: Antimicrobial activity against Candida albicans after 48 hrs by paper disk diffusion assay; type: functional
Rhizoctonia solani = assay: Antimicrobial activity against Rhizoctonia solani after 48 hrs by paper disk diffusion assay; type: functional
Escherichia coli = assay: Antimicrobial activity against Escherichia coli after 48 hrs by paper disk diffusion assay; type: functional
[1] = Inhibition of serum-opsonized zymosan-induced oxidative burst in whole blood (unknown origin); type: functional, tissue-based
[2] = Cytotoxicity against human PC3 cells after 3 days by MTT assay; type: functional, cell-based; conditions: PC-3, 72 h
Globisporangium ultimum = assay: Antimicrobial activity against Pythium ultimum after 48 hrs by paper disk diffusion assay; type: functional

COc1ccc2c(=O)c3c(O)cc4c(c3n(C)c2c1C1(O)C(=O)c2cc(C)cc3ccc(=O)n1c23)C=CC(C)(C)O4 (configuration not stated)
MIC (Bacillus subtilis): > 1 µg/mL | MIC (Aphanomyces cochlioides): > 1 µg/mL | MIC (Rhizomucor miehei): > 1 µg/mL | MIC (Staphylococcus aureus): > 1 µg/mL | MIC (Candida albicans): > 1 µg/mL | MIC (Rhizoctonia solani): > 1 µg/mL | MIC (Escherichia coli): > 1 µg/mL | IC50 [1]: 20.1 µM | IC50 [2]: 75.8 µM | MIC (Globisporangium ultimum): > 1 µg/mL

Cc1cc2c3c(ccc(=O)n3C(O)(c3c(O)ccc4c(=O)c5c(O)cc6c(c5n(C)c34)C=CC(C)(C)O6)C2=O)c1 (configuration not stated)
MIC (Bacillus subtilis): > 1 µg/mL | MIC (Aphanomyces cochlioides): > 1 µg/mL | MIC (Rhizomucor miehei): > 1 µg/mL | MIC (Staphylococcus aureus): > 1 µg/mL | MIC (Candida albicans): > 1 µg/mL | MIC (Rhizoctonia solani): > 1 µg/mL | MIC (Escherichia coli): > 1 µg/mL | IC50 [1]: 17.2 µM | IC50 [2]: 71.5 µM | MIC (Globisporangium ultimum): > 1 µg/mL

COc1cc(O)c(C=O)cc1OC
MIC (Bacillus subtilis): > 1 µg/mL | MIC (Aphanomyces cochlioides): > 1 µg/mL | MIC (Rhizomucor miehei): > 1 µg/mL | MIC (Staphylococcus aureus): > 1 µg/mL | MIC (Candida albicans): > 1 µg/mL | MIC (Rhizoctonia solani): > 1 µg/mL | MIC (Escherichia coli): > 1 µg/mL | IC50 [1]: 16.4 µM | IC50 [2]: 60.1 µM | MIC (Globisporangium ultimum): > 1 µg/mL

COc1cccc2c(=O)c3c(O)cc4c(c3n(C)c12)C=CC(C)(C)O4
MIC (Bacillus subtilis): > 1 µg/mL | MIC (Aphanomyces cochlioides): > 1 µg/mL | MIC (Rhizomucor miehei): > 1 µg/mL | MIC (Staphylococcus aureus): > 1 µg/mL | MIC (Candida albicans): > 1 µg/mL | MIC (Rhizoctonia solani): > 1 µg/mL | MIC (Escherichia coli): > 1 µg/mL | IC50 [1]: 4.5 µM | IC50 [2]: 70 µM | MIC (Globisporangium ultimum): > 1 µg/mL

CC1(C)C=Cc2c(cc(O)c3c(=O)cc(-c4ccc(O)cc4)oc23)O1 [ATALANTOFLAVONE]
MIC (Bacillus subtilis): > 1 µg/mL | MIC (Aphanomyces cochlioides): > 1 µg/mL | MIC (Rhizomucor miehei): > 1 µg/mL | MIC (Staphylococcus aureus): > 1 µg/mL | MIC (Candida albicans): > 1 µg/mL | MIC (Rhizoctonia solani): > 1 µg/mL | MIC (Escherichia coli): > 1 µg/mL | IC50 [1]: 10.5 µM | IC50 [2]: 55.6 µM | MIC (Globisporangium ultimum): > 1 µg/mL

COc1cccc2c1C(=O)c1c(O)c3c(c(O)c1C2=O)C[C@@](O)(C(=O)CO)C[C@@H]3O[C@H]1C[C@H](N)[C@H](O)[C@H](C)O1 [DOXORUBICIN]
IC50 [2]: 0.9 µM

CC(C)Cc1ccc(C(C)C(=O)O)cc1 (configuration not stated) [IBUPROFEN]
IC50 [1]: 11.2 µM

COc1c2ccoc2c(OC)c2oc(=O)ccc12 [ISOPIMPINELLIN]
MIC (Bacillus subtilis): > 1 µg/mL | MIC (Aphanomyces cochlioides): > 1 µg/mL | MIC (Rhizomucor miehei): > 1 µg/mL | MIC (Staphylococcus aureus): > 1 µg/mL | MIC (Candida albicans): > 1 µg/mL | MIC (Rhizoctonia solani): > 1 µg/mL | MIC (Escherichia coli): > 1 µg/mL | IC50 [1]: 9.4 µM | IC50 [2]: 99.8 µM | MIC (Globisporangium ultimum): > 1 µg/mL

COc1cc2ccc(=O)oc2cc1OC [SCOPARONE]
MIC (Bacillus subtilis): > 1 µg/mL | MIC (Aphanomyces cochlioides): > 1 µg/mL | MIC (Rhizomucor miehei): > 1 µg/mL | MIC (Staphylococcus aureus): > 1 µg/mL | MIC (Candida albicans): > 1 µg/mL | MIC (Rhizoctonia solani): > 1 µg/mL | MIC (Escherichia coli): > 1 µg/mL | IC50 [1]: 11.4 µM | IC50 [2]: 54.4 µM | MIC (Globisporangium ultimum): > 1 µg/mL

COc1cc2oc(=O)ccc2cc1CC=C(C)C [SUBEROSIN]
MIC (Bacillus subtilis): > 1 µg/mL | MIC (Aphanomyces cochlioides): > 1 µg/mL | MIC (Rhizomucor miehei): > 1 µg/mL | MIC (Staphylococcus aureus): > 1 µg/mL | MIC (Candida albicans): > 1 µg/mL | MIC (Rhizoctonia solani): > 1 µg/mL | MIC (Escherichia coli): > 1 µg/mL | IC50 [1]: 18.3 µM | IC50 [2]: 51.3 µM | MIC (Globisporangium ultimum): > 1 µg/mL
